Measurements reported in ChEMBL document CHEMBL3745707 (Bioorg Med Chem, 2016).

How the values were obtained:
[1] = test system: K562; assay: cells; format: functional, cell-based; settings: Homo sapiens, K562, 72 h
[2] = cells; format: functional, cell-based; settings: Homo sapiens, DU-145, 72 h
[3] = target: Serine/threonine-protein kinase PLK2 (Homo sapiens, UniProt Q9NYY3); assay: Inhibition of human recombinant PLK2 using recombinant dephosphorylated bovine alpha- casein as substrate after 30 mins by scintillation counting analysis in presence of gamma-32P-ATP
Serine/threonine-protein kinase PLK2, sequence (Q9NYY3 whole entry): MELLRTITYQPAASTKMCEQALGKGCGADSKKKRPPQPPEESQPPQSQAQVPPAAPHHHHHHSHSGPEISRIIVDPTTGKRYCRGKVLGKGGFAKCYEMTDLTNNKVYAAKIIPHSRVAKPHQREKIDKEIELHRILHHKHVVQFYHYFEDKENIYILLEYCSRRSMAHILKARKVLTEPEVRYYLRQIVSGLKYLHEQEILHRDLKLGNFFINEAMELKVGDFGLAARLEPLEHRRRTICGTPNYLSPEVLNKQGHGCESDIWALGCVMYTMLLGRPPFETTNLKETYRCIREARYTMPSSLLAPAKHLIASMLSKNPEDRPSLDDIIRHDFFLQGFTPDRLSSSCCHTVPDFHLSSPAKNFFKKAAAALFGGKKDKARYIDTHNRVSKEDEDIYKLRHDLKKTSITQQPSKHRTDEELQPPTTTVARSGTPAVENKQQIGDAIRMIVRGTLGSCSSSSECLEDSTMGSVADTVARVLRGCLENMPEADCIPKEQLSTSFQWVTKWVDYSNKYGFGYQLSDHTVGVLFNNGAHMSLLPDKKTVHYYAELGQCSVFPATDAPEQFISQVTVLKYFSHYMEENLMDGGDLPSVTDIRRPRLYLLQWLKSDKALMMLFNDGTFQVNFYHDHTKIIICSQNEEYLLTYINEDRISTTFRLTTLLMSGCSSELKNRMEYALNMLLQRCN

| IC50 [1] [µM] | IC50 [2] [µM] | IC50 [3] [µM] | SMILES |
| --- | --- | --- | --- |
| 5 | 10 |  | Cc1ccc(S(=O)(=O)c2cc3cnc(Nc4cccc5[nH]ccc45)nc3n(C)c2=O)cc1 |
| 0.75 | 0.5 |  | Cn1c(=O)c(S(=O)(=O)c2ccc(F)cc2)cc2cnc(Nc3cnc4[nH]ccc4c3)nc21 |
| 30 | 50 |  | Cn1c(=O)c(S(=O)(=O)c2ccc(F)cc2F)cc2cnc(Nc3ccncn3)nc21 |
| 75 | 100 |  | Cn1c(=O)c(S(=O)(=O)c2ccc(F)cc2F)cc2cnc(NCc3ccc4[nH]ccc4c3)nc21 |
| 0.75 | 0.75 |  | Cn1ccc2cc(Nc3ncc4cc(S(=O)(=O)c5ccc(F)cc5F)c(=O)n(C)c4n3)ccc21 |
| 10 | 10 |  | Cn1c(=O)c(S(=O)(=O)c2ccc(F)cc2F)cc2cnc(Nc3ccc4[nH]c(C(=O)O)cc4c3)nc21 |
| 1 | 5 | 1.23 | Cn1c(=O)c(S(=O)(=O)c2ccccc2)cc2cnc(Nc3ccc4[nH]ccc4c3)nc21 |
| 1.5 | 0.75 |  | Cn1c(=O)c(S(=O)(=O)c2ccc(F)cc2F)cc2cnc(Nc3cccc4[nH]ccc34)nc21 |
| 1 | 1 |  | CCCn1c(=O)c(S(=O)(=O)c2ccc(F)cc2F)cc2cnc(Nc3ccc4[nH]ccc4c3)nc21 |
| 50 | 30 |  | Cn1c(=O)c(S(=O)(=O)c2ccc(F)cc2F)cc2cnc(Nc3ccc4[nH]ncc4c3)nc21 |
| 5 | 10 |  | COC(=O)Cn1c(=O)c(S(=O)(=O)c2ccc(F)cc2F)cc2cnc(Nc3ccc4[nH]ccc4c3)nc21 |
| 0.9 | 1.5 |  | Cn1c(=O)c(S(=O)(=O)c2ccc(F)cc2[N+](=O)[O-])cc2cnc(Nc3ccc4[nH]ccc4c3)nc21 |
| 5 | 5 |  | Cn1c(=O)c(S(=O)(=O)c2ccc(F)cc2F)cc2cnc(Nc3ccc4cc[nH]c4c3)nc21 |
| 30 | 75 |  | Cn1c(=O)c(S(=O)(=O)c2ccc(F)cc2F)cc2cnc(Nc3ccc4c(c3)C(=O)C(=O)N4)nc21 |
| 0.75 | 0.75 |  | Cn1c(=O)c(S(=O)(=O)c2ccc(F)cc2F)cc2cnc(Nc3cnc4[nH]ccc4c3)nc21 |
| 35 | 75 |  | Cn1c(=O)c(S(=O)(=O)c2ccc(F)cc2F)cc2cnc(Nc3ccccn3)nc21 |
| 5 | 5 |  | O=c1c(S(=O)(=O)c2ccc(F)cc2F)cc2cnc(Nc3ccc4[nH]ccc4c3)nc2n1C1CCCC1 |
| 0.2 | 0.4 |  | Cn1c(=O)c(S(=O)(=O)c2ccc([N+](=O)[O-])cc2F)cc2cnc(Nc3ccc4[nH]ccc4c3)nc21 |
| 0.75 | 0.75 |  | Cc1cc2cc(Nc3ncc4cc(S(=O)(=O)c5ccc(F)cc5F)c(=O)n(C)c4n3)ccc2[nH]1 |
| 5 | 5 |  | Cn1c(=O)c(S(=O)(=O)c2ccc(F)cc2F)cc2cnc(Nc3ccc4cccc(O)c4n3)nc21 |
| 1 | 1 |  | O=c1c(S(=O)(=O)c2ccc(F)cc2F)cc2cnc(Nc3ccc4[nH]ccc4c3)nc2n1CC1CC1 |
| 10 | 5 |  | Cn1c(=O)c(S(=O)(=O)c2ccc(F)cc2)cc2cnc(Nc3ccc4[nH]ncc4c3)nc21 |

| IC50 [1] [µM] | IC50 [2] [µM] | IC50 [3] [µM] | SMILES |
| --- | --- | --- | --- |
| 15 | 15 |  | O=c1[nH]c2nc(Nc3ccc4[nH]ccc4c3)ncc2cc1S(=O)(=O)c1ccc(F)cc1F |
| 5 | 5 |  | Cn1c(=O)c(S(=O)(=O)c2ccc(Br)cc2)cc2cnc(Nc3ccc4[nH]ccc4c3)nc21 |
| 5 | 1 |  | Cn1c(=O)c(S(=O)(=O)c2ccccc2)cc2cnc(Nc3cnc4[nH]ccc4c3)nc21 |
| 15 | 15 |  | Cn1c(=O)c(S(=O)(=O)c2ccc(Cl)cc2)cc2cnc(Nc3cnc4ccccc4c3)nc21 |
| 100 | 50 |  | Cn1c(=O)c(S(=O)(=O)c2ccccc2)cc2cnc(Nc3ccc4ncccc4c3)nc21 |
| 5 | 5 |  | Cn1c(=O)c(C(=O)Nc2ccc(F)cc2)cc2cnc(Nc3ccc4[nH]ccc4c3)nc21 |
| 15 | 30 |  | COc1ccc(Nc2ncc3cc(S(=O)(=O)c4ccc(Cl)cc4)c(=O)n(C)c3n2)cc1 |
| 15 | 100 |  | Cn1c(=O)c(S(=O)(=O)c2ccc(F)cc2F)cc2cnc(Nc3ccc4c(c3)CC(=O)N4)nc21 |
| 15 | 15 |  | Cc1ccc(S(=O)(=O)c2cc3cnc(Nc4ccc5cc[nH]c5c4)nc3n(C)c2=O)cc1 |
| 1 | 1 |  | Cn1c(=O)c(S(=O)(=O)c2ccc(Cl)cc2Cl)cc2cnc(Nc3ccc4[nH]ccc4c3)nc21 |
| 75 | 100 |  | COc1ccc(Nc2ncc3cc(S(=O)(=O)c4ccc(C)cc4)c(=O)n(C)c3n2)cc1 |
| 5 | 5 |  | CN1CCN(c2ccc(Nc3ncc4cc(S(=O)(=O)c5ccc(F)cc5F)c(=O)n(C)c4n3)cc2)CC1 |
| 10 | 10 |  | Cc1ccc(S(=O)(=O)c2cc3cnc(Nc4ccc5ncccc5c4)nc3n(C)c2=O)cc1 |
| 1.5 | 8 |  | Cn1c(=O)c(S(=O)(=O)c2ccc(N)cc2F)cc2cnc(Nc3ccc4[nH]ccc4c3)nc21 |
| 2 | 3 |  | Cn1c(=O)c(S(=O)(=O)c2ccc(F)cc2N)cc2cnc(Nc3ccc4[nH]ccc4c3)nc21 |
| 5 | 5 |  | COc1ccc(S(=O)(=O)c2cc3cnc(Nc4cccc5[nH]ccc45)nc3n(C)c2=O)cc1 |
| 0.75 | 0.75 |  | Cn1ccc2cc(Nc3ncc4cc(S(=O)(=O)c5ccc(Cl)cc5Cl)c(=O)n(C)c4n3)ccc21 |
| 0.1 | 0.25 |  | Cn1c(=O)c(S(=O)(=O)c2ccc(Cl)cc2)cc2cnc(Nc3ccc4[nH]ccc4c3)nc21 |
| 5 | 5 |  | Cn1c(=O)c(C(=O)Nc2ccc(F)cc2F)cc2cnc(Nc3ccc4[nH]ccc4c3)nc21 |
| 0.5 | 0.5 |  | O=c1c(S(=O)(=O)c2ccc(F)cc2F)cc2cnc(Nc3ccc4[nH]ccc4c3)nc2n1C1CC1 |
| 1 | 1 |  | Cn1c(=O)c(S(=O)(=O)Cc2ccc(F)cc2F)cc2cnc(Nc3ccc4[nH]ccc4c3)nc21 |
| 5 | 5 |  | Cn1c(=O)c(S(=O)(=O)c2ccc(Cl)cc2)cc2cnc(Nc3cccc4[nH]ccc34)nc21 |

| IC50 [1] [µM] | IC50 [2] [µM] | IC50 [3] [µM] | SMILES |
| --- | --- | --- | --- |
| 0.3 | 0.5 | 0.35 | COc1ccc(S(=O)(=O)c2cc3cnc(Nc4ccc5[nH]ccc5c4)nc3n(C)c2=O)cc1 |
| 10 | 10 |  | Cc1ccc(S(=O)(=O)c2cc3cnc(Nc4cccc5cccnc45)nc3n(C)c2=O)cc1 |
| 5 | 5 |  | COC(=O)Cn1ccc2cc(Nc3ncc4cc(S(=O)(=O)c5ccc(F)cc5F)c(=O)n(C)c4n3)ccc21 |
| 15 | 25 |  | Cc1ccc(S(=O)(=O)c2cc3cnc(Nc4cnc5[nH]ccc5c4)nc3n(C)c2=O)cc1 |
| 10 | 10 |  | Cn1c(=O)c(S(=O)(=O)c2ccc(F)cc2)cc2cnc(Nc3ccc4cc[nH]c4c3)nc21 |
| 5 | 5 |  | Cn1c(=O)c(S(=O)(=O)Nc2ccc(F)cc2)cc2cnc(Nc3ccc4[nH]ccc4c3)nc21 |
| 15 | 15 |  | Cc1ccc(S(=O)(=O)c2cc3cnc(Nc4cnc5c(c4)CC(=O)N5)nc3n(C)c2=O)cc1 |
| 30 | 30 |  | Cn1c(=O)c(S(=O)(=O)Cc2ccc(F)cc2)cc2cnc(Nc3ccc4[nH]ccc4c3)nc21 |
| 15 | 15 |  | Cn1c(=O)c(S(=O)(=O)c2ccc(F)cc2F)cc2cnc(Nc3ccc4occc4c3)nc21 |
| 5 | 5 |  | Cn1c(=O)c(S(=O)(=O)Nc2ccc(F)cc2F)cc2cnc(Nc3ccc4[nH]ccc4c3)nc21 |
| 5 | 5 |  | Cn1c(=O)c(S(=O)(=O)c2ccc(F)cc2)cc2cnc(Nc3ccc4occc4c3)nc21 |
| 5 | 5 |  | Cn1c(=O)c(S(=O)(=O)c2ccc(Cl)cc2)cc2cnc(Nc3cnc4[nH]ccc4c3)nc21 |
| 15 | 15 |  | Cn1c(=O)c(S(=O)(=O)c2ccc(Cl)cc2)cc2cnc(Nc3ccc(Cl)cc3)nc21 |
| 0.75 | 0.75 |  | Cc1ccc(S(=O)(=O)c2cc3cnc(Nc4ccc5[nH]ccc5c4)nc3n(C)c2=O)cc1 |
| 10 | 10 |  | O=c1c(S(=O)(=O)c2ccc(F)cc2F)cc2cnc(Nc3ccc4[nH]ccc4c3)nc2n1C1CCCCC1 |
| 10 | 10 |  | Cn1c(=O)c(S(=O)(=O)c2ccccc2)cc2cnc(Nc3ccc4cc[nH]c4c3)nc21 |
| 0.75 | 0.75 | 6.08 | Cn1c(=O)c(S(=O)(=O)c2ccc(F)cc2)cc2cnc(Nc3cccc4[nH]ccc34)nc21 |
| 0.5 | 0.5 |  | Cn1c(=O)c(S(=O)(=O)c2ccc(F)cc2F)cc2cnc(Nc3ccc4sccc4c3)nc21 |
| 0.75 | 0.75 |  | CCn1c(=O)c(S(=O)(=O)c2ccc(F)cc2F)cc2cnc(Nc3ccc4[nH]ccc4c3)nc21 |
| 7 | 10 |  | O=c1c(S(=O)(=O)c2ccc(F)cc2F)cc2cnc(Nc3ccc4[nH]ccc4c3)nc2n1CC1CCCC1 |
| 5 | 10 |  | Cn1c(=O)c(S(=O)(=O)c2ccc(C(=O)O)cc2)cc2cnc(Nc3ccc4[nH]ccc4c3)nc21 |
| 10 | 10 |  | Cn1c(=O)c(S(=O)(=O)c2ccc(F)cc2)cc2cnc(Nc3ccc4[nH]cnc4c3)nc21 |
